In US20240000863A1, “Skin Probiotics” (The Regents of the University of California, priority 2021, published 2024):

T1: KLK5 (Homo sapiens, UniProt Q9Y337)
T1 sequence (Q9Y337 23-293): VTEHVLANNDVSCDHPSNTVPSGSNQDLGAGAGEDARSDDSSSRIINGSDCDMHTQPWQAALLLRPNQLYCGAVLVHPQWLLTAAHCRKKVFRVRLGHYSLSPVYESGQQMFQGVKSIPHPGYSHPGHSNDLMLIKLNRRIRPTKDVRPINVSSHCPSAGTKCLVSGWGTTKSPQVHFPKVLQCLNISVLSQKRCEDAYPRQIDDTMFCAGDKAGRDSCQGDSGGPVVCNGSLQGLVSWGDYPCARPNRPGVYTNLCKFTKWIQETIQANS

T2: KLK5 protein (kallikrein 5) (UniProt Q9Y337 67-293, limits assumed)
T2 sequence (looked up): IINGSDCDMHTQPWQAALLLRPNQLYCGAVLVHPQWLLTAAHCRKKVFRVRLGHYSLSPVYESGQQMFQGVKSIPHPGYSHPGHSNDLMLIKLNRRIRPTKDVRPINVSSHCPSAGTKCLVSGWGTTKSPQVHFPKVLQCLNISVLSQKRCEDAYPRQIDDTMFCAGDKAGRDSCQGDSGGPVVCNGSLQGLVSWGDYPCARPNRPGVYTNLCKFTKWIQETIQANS


Tests used:
KLK5 = target: T1, KLK5; experiment: KLK5 inhibition assay (Acetyl-YASR-paranitroanilide, absorbance 405 nm); assay type: biochemical; conditions: over 30 minutes; leupeptin at 100 uM
Procedure: The KLK5 inhibition assay is the foremost method to determine inhibition of KLK5. In the assay, KLK5 is incubated with the substrate Acetyl-YASR-paranitroanilide Uninhibited, KLK5 cleaves the substrate Acetyl-YASR at the arginine position […], releasing para-nitroanilide, a chromophore with absorbance 405 nm, resulting in increased absorption at that wavelength. When inhibited, the substrate Acetyl-YASR-paranitroanilide remains intact, and there is no increase in absorption at 405 nm. As a positive control, we used the absence of any inhibitor and the addition of purified Red Fluorescent Protein (RFP). As negative controls, we used a substrate only addition (no KLK5 is added) as well as a 100 uM addition of purified leupeptin, which is known to inhibit KLK5 at high concentrations.

[1] = target: T2, KLK5 protein (kallikrein 5); experiment: cell-based or functional assay

| change of absorbance at 405 nm (KLK5) | KLK5 inhibition assay (cleavage of Acetyl-YASR-paranitroanilide, absorbance at 405 nm), IC50 [1] [µM] | Molecule |
| --- | --- | --- |
| very little increasing absorbance | – | CC(=O)N[C@@H](CC(C)C)C(=O)N[C@@H](CC(C)C)C(=O)N[C@H](C=O)CCCNC(=N)N [leupeptin] |
| – | 0.089 | LEKTI-D6 protein (lymphoepithelial Kazal-Type-related protease inhibitor, domain 6), secreted by C. glutamicum and purified (other) MESGKATSYAELCNEYRKLVRNGKLACTRENDPIQGPDGKVHGNTCSMCEVFFQAEEEEKKKKEGESRNKR |
